Target: T1, M1 protein (Streptococcus pyogenes, UniProt Q99XV0)
T1 construct: gene emm1; captured on NTA chip
Assay: SPR, single-cycle, steady-state affinity
Assay type: binding
Conditions: protein captured on NTA chip via His tag, PBS, 25 °C

T1 sequence (Q99XV0 entry or part of it): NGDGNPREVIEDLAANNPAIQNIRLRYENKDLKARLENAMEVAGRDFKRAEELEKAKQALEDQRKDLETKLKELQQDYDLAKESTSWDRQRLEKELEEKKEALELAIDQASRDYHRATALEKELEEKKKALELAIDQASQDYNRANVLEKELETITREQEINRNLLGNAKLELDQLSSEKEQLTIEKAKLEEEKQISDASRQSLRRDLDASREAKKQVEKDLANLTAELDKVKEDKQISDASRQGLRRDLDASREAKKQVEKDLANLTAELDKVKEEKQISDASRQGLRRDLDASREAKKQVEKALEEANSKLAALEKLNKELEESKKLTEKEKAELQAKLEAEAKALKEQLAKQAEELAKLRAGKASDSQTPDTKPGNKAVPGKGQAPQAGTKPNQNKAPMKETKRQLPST

| SMILES | Kd |
| --- | --- |
| CC(=O)N[C@H]1[C@@H](O[C@H]2[C@@H](O)[C@@H](CO)OC(O)[C@@H]2O[C@@H]2O[C@@H](C)[C@@H](O)[C@@H](O)[C@@H]2O)O[C@H](CO)[C@H](O)[C@@H]1O (some centres unmarked) [7K, GalNAcα1-3(Fucα1-2)Gal] | 2.5 ± 0.4 µM |
| C[C@@H]1O[C@@H](O[C@H]2C(O)O[C@H](CO)[C@H](O)[C@@H]2O[C@H]2O[C@H](CO)[C@H](O)[C@H](O)[C@H]2O)[C@@H](O)[C@H](O)[C@@H]1O (some centres unmarked) [blood group B trisaccharide, Galα1-3(Fucα1-2)Gal] | 0.518 ± 0.0513 µM |

Reference: PMC5263248, “Blood Group Antigen Recognition via the Group A Streptococcal M Protein Mediates Host Colonization” (mBio, 2017)
